inhibition, EC50 and IC50 data for one compound are collected here from ChEMBL document CHEMBL4043290, “Structure-based Design of Pyridone-Aminal eFT508 Targeting Dysregulated Translation by Selective Mitogen-activated Protein Kinase Interacting Kinases 1 and 2 (MNK1/2) Inhibition” (J Med Chem, 2018).

SMILES strings stand for the structures.

Assay [1] has as its target High affinity nerve growth factor receptor (Homo sapiens) (UniProt P04629). Description: Inhibition of TRKA (unknown origin) at 1 uM relative to control.
Assay [2] deals with Serine/threonine-protein kinase pim-1 (Homo sapiens) (UniProt P11309). The assay can be described thus: Inhibition of PIM1 (unknown origin) at 1 uM relative to control.
Assay [3] concerns the target 5'-AMP-activated protein kinase catalytic subunit alpha-1 (Homo sapiens) (UniProt Q13131). Description: Inhibition of AMPKA1 (unknown origin) at 1 uM relative to control.
The target of assay [4] is Platelet-derived growth factor receptor beta (Homo sapiens) (UniProt P09619). The assay can be described thus: Inhibition of PDGFRB (unknown origin) at 1 uM relative to control.
Assay [5] deals with PC-3. Description: Antiproliferative activity against human PC3 cells after 72 hrs by CellTiter-Glo assay. The assay is classed as functional, cell-based. The following applies: PC-3, 72 h. For orientation: Cellular ATP, detected with luciferase, serves as a proxy for viable cell number.
In assay [6] the target is MAP kinase-interacting serine/threonine-protein kinase 2 (Homo sapiens, UniProt Q9HBH9).
Assay [7] deals with Platelet-derived growth factor receptor alpha (Homo sapiens) (UniProt P16234). The assay can be described thus: Inhibition of PDGFRA (unknown origin) at 1 uM relative to control.
The target in assay [8] is MAP kinase-interacting serine/threonine-protein kinase 1 (Homo sapiens, UniProt Q9BUB5).
Assay [9] addresses Interleukin-1 receptor-associated kinase 1 (Homo sapiens) (UniProt P51617). The assay can be described thus: Inhibition of IRAK1 (unknown origin) at 1 uM relative to control.
Assay [10] concerns the target Dual specificity tyrosine-phosphorylation-regulated kinase 1A (Homo sapiens) (UniProt Q13627). The assay can be described thus: Inhibition of DYRK1A (unknown origin) at 1 uM relative to control.
Assay [11] deals with Ribosomal protein S6 kinase alpha-1 (Homo sapiens) (UniProt Q15418). The assay can be described thus: Inhibition of RSK1 (unknown origin) at 1 uM relative to control.
In assay [12] the test system is SW-620. Description: Antiproliferative activity against human SW620 cells after 72 hrs by CellTiter-Glo assay. The assay is classed as functional, cell-based. The settings on record: SW-620, 72 h.
Assay [13] deals with Receptor-type tyrosine-protein kinase FLT3 (Homo sapiens) (UniProt P36888). Description: Inhibition of FLT3 (unknown origin) at 1 uM relative to control.
Assay [14] has as its target Calcium/calmodulin-dependent protein kinase type II subunit alpha (Homo sapiens) (UniProt Q9UQM7). The assay can be described thus: Inhibition of CAMK2A (unknown origin) at 1 uM relative to control.
Assay [15] deals with MAP kinase-interacting serine/threonine-protein kinase 1/2 (Homo sapiens, UniProt Q9HBH9+Q9BUB5).
In assay [16] the target is Vascular endothelial growth factor receptor 2 (Homo sapiens) (UniProt P35968). Description: Inhibition of KDR (unknown origin) at 1 uM relative to control.
Assay [17] deals with Dual specificity mitogen-activated protein kinase kinase 2 (Homo sapiens) (UniProt P36507). The assay can be described thus: Inhibition of MEK2 (unknown origin) at 1 uM relative to control.
The target of assay [18] is Dual specificity protein kinase CLK1 (Homo sapiens) (UniProt P49759). Description: Inhibition of CLK1 (unknown origin) at 1 uM relative to control.
For assay [19], the target named is Rho-associated protein kinase 1 (Homo sapiens) (UniProt Q13464). Description: Inhibition of ROCK1 (unknown origin) at 1 uM relative to control.
For assay [20], the system named is HCT-116. Description: Antiproliferative activity against human HCT116 cells after 72 hrs by CellTiter-Glo assay. The assay is classed as functional, cell-based. The settings on record: HCT-116, 72 h.
The target of assay [21] is 5'-AMP-activated protein kinase subunit gamma-1 (Homo sapiens) (UniProt P54619). Description: Inhibition of AMPKG1 (unknown origin) at 1 uM relative to control.
Assay [22] has as its target Serine/threonine-protein kinase B-raf (Homo sapiens) (UniProt P15056). Description: Inhibition of BRAF (unknown origin) at 1 uM relative to control.
Assay [23] concerns the target 5'-AMP-activated protein kinase subunit beta-1 (Homo sapiens) (UniProt Q9Y478). The assay can be described thus: Inhibition of AMPKB1 (unknown origin) at 1 uM relative to control.
Assay [24] concerns the target Cyclin-dependent kinase 2 (Homo sapiens) (UniProt P24941). Description: Inhibition of CDK2 (unknown origin) at 1 uM relative to control.

MAP kinase-interacting serine/threonine-protein kinase 1, sequence (Q9BUB5 whole entry): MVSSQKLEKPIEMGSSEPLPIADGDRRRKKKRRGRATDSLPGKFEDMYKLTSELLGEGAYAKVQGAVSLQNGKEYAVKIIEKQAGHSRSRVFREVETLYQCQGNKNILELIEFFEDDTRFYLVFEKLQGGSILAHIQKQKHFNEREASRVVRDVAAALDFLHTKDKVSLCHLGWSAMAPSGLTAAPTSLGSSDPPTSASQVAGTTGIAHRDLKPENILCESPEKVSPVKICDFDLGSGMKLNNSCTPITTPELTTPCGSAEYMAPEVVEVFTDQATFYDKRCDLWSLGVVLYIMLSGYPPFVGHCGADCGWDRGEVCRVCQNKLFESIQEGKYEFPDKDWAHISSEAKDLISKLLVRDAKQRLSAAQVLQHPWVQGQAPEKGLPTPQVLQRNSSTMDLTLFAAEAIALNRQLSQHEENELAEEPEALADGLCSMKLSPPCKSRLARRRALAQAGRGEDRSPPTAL
Receptor-type tyrosine-protein kinase FLT3 (Homo sapiens), sequence (P36888 whole entry): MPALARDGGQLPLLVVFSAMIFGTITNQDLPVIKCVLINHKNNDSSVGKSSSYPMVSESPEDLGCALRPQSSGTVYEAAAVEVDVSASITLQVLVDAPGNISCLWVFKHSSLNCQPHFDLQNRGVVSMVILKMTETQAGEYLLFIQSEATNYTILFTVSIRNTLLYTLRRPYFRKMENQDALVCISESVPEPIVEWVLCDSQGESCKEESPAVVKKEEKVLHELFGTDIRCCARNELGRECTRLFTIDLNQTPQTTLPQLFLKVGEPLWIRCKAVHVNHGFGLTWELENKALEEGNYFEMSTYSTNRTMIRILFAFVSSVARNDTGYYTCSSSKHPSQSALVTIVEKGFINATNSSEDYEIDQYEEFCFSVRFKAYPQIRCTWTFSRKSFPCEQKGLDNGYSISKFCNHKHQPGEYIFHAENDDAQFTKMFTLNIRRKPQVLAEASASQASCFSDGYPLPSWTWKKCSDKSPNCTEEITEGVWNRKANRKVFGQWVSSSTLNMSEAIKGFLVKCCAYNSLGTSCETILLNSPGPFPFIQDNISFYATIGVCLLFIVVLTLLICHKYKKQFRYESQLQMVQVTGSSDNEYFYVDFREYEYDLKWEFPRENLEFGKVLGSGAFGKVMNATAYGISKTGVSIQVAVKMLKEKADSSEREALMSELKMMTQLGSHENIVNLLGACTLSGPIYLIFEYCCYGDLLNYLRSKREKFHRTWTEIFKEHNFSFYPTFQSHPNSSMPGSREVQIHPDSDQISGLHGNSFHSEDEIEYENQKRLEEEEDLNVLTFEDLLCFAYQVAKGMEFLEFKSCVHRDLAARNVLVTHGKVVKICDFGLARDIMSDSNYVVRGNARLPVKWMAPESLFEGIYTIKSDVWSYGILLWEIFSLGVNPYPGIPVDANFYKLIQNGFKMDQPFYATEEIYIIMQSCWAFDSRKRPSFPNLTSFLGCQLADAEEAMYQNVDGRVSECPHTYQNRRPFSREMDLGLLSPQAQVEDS
5'-AMP-activated protein kinase subunit beta-1 (Homo sapiens), sequence (Q9Y478 whole entry): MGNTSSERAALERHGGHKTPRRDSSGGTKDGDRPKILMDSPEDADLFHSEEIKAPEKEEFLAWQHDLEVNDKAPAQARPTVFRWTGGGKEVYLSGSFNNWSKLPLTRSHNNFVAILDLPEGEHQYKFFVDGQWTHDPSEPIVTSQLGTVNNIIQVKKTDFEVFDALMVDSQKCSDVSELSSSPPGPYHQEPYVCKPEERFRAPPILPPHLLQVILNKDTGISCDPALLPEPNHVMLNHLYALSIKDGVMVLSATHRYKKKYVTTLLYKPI
Platelet-derived growth factor receptor alpha (Homo sapiens), sequence (P16234 whole entry): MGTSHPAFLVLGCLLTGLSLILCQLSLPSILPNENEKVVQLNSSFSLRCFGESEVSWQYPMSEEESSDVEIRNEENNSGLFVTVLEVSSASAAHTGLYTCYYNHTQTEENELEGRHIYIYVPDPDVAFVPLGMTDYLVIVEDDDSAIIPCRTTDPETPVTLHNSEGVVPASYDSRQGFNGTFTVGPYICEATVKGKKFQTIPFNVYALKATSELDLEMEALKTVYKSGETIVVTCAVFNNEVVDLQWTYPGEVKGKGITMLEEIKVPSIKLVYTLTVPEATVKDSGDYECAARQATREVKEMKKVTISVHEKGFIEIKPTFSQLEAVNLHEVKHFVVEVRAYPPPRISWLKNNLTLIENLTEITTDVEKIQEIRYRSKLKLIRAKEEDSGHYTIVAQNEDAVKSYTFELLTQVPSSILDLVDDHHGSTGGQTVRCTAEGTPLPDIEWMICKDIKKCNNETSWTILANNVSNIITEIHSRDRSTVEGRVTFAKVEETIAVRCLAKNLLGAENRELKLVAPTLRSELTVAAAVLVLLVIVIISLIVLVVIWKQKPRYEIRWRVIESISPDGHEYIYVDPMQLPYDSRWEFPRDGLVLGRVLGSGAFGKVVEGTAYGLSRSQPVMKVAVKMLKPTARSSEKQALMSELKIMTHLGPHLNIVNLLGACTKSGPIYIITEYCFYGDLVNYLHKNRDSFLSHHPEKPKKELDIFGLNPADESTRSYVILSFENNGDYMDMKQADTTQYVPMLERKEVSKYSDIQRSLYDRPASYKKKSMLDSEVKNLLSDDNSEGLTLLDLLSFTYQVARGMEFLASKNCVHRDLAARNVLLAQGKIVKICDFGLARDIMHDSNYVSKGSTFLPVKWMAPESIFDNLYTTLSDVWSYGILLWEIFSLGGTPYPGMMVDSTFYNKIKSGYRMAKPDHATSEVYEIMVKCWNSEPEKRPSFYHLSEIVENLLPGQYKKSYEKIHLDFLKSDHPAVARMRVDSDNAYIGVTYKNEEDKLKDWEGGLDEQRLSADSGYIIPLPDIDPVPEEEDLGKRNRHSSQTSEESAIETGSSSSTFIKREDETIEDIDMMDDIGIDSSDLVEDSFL
5'-AMP-activated protein kinase subunit gamma-1 (Homo sapiens), sequence (P54619 whole entry): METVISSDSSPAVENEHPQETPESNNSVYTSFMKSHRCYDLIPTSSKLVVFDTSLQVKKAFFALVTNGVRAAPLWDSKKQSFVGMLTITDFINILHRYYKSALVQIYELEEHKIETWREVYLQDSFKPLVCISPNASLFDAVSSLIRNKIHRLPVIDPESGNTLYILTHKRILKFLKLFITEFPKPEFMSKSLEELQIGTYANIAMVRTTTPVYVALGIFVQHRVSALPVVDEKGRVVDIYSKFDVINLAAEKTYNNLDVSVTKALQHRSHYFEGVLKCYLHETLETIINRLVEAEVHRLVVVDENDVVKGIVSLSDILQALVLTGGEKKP
Calcium/calmodulin-dependent protein kinase type II subunit alpha (Homo sapiens), sequence (Q9UQM7 whole entry): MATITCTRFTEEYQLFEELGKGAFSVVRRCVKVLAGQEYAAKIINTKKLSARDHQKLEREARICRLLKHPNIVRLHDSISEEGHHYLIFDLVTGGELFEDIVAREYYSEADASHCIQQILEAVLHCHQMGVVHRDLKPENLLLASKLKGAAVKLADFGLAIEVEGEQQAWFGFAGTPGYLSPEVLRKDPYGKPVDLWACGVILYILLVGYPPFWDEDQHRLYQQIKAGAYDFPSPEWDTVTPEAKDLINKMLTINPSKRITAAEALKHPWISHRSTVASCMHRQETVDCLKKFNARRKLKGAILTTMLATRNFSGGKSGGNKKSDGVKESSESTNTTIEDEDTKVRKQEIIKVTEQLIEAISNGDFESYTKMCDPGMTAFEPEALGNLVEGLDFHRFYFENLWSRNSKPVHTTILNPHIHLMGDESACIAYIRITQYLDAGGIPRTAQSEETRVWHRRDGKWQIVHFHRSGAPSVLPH
Rho-associated protein kinase 1 (Homo sapiens), sequence (Q13464 2-1354 limits assumed): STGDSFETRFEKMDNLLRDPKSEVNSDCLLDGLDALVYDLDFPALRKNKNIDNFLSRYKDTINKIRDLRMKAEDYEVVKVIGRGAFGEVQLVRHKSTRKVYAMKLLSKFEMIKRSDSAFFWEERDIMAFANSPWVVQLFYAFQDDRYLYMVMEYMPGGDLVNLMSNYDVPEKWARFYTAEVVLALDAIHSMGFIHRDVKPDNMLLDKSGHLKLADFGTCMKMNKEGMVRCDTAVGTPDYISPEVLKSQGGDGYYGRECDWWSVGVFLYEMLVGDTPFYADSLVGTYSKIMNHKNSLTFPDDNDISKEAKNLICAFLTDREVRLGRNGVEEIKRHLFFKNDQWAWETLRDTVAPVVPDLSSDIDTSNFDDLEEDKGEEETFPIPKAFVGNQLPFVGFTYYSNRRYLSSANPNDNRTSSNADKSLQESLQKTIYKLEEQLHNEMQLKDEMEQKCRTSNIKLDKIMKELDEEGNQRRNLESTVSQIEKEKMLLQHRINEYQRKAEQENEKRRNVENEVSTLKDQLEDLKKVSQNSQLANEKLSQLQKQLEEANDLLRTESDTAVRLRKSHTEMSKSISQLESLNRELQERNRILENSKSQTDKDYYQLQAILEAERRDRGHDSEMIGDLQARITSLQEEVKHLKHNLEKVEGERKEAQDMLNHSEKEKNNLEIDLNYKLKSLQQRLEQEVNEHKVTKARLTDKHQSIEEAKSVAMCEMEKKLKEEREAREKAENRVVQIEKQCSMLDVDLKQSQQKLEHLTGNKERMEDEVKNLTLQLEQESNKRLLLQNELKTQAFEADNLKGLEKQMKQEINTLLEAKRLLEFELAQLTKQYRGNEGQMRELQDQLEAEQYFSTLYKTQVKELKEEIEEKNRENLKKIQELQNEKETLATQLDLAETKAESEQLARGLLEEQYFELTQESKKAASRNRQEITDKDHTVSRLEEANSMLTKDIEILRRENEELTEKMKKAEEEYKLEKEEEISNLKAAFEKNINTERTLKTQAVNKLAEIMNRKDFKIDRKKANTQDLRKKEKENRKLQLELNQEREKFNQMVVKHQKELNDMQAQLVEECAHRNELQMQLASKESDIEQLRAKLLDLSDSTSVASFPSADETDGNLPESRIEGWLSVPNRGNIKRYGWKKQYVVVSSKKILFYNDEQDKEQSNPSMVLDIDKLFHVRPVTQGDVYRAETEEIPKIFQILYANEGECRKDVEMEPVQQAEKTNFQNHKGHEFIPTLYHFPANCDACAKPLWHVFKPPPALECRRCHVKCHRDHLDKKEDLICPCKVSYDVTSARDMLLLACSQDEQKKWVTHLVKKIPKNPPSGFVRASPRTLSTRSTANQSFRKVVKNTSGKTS

What is called inhibition is the change of the read-out against control, counted positive when it falls. In general, EC50 refers to the concentration that produces a half-maximal response. A low value points to an effect from little substance. As usually defined, the IC50 is the concentration that inhibits the measured activity by half. Lower therefore signals higher potency. For the compound `N[C@H]1C[C@H](Oc2ccc3ncc(-c4ccc5cnccc5c4)n3n2)C1`, the inhibition in assay [1], in assay [2], in assay [3], in assay [4], in assay [7] and in assay [9] was 17% in each case. The inhibition in assay [10], in assay [11], in assay [13], in assay [14], in assay [16] and in [17] was 17% each time. Further, the inhibition in [18], in [19], in assay [21], in assay [22], in assay [23] and in assay [24] was 17% throughout. In addition, the values for the EC50 in [5], in [12] and in assay [20] were 590 nM, 310 nM and 210 nM, respectively. Further, the IC50 came to 7.8 nM in assay [6], 1.5 nM in assay [8] and 120 nM in [15].
